This note sets out measurements from patent US11542233B2, “Compounds, compositions and methods of use” (Aquinnah Pharmaceuticals, Inc., priority 2016, dated 2023).

As a reminder, the IC50 is the concentration that inhibits the measured activity by half.

The test concerns TDP-43 aggregation in PC12 cells stably expressing GFP-tagged mutant TDP-43 (TDP-43^Q33IK::eGFP). As to the kind of experiment: In vitro efficacy assay: inhibition of TDP-43 inclusions, concentration-response, fluorescence microscopy. Particulars: 1 hour pre-treatment, 15 μM sodium arsenite for 23 hours, 10-point dose response curve. It counts as cell-based. The protocol: Exemplary compounds of the invention were evaluated for efficacy in inhibiting TDP-43 inclusions using a concentration-response assay. Briefly, PC12 cells stably expressing a GFP-tagged mutant form of TDP-43 (TDP-43^Q33IK::eGFP) were pre-treated for 1 hour with exemplary compounds and stressed with 15 μM sodium arsenite for 23 hours to induce TDP-43 aggregation. The inhibitory effect on TDP-43 aggregation was measured using fluorescence microscopy. The ratio of cells with TDP-43 aggregates was calculated based on the total number of cells with detectable GFP expression. In the table, “A” indicates an IC50 of less than 100 nM, “B” indicates an IC50 range from 100 nM to 500 nM; “C” indicates an IC50 range from 500 nM to 2 μM; and “D” indicates an IC50 greater than 2 μM.

Setting [1] is: Rattus norvegicus, PC-12, PC12 cells.

In the case of `CCN(C(=O)c1cc2ccccc2[nH]1)[C@H]1CCC[C@@H](NCc2cncnc2)C1` [Compound 130], under setting [1], the IC50 was in the range of 500 to 2000 nM.

For the molecule `CCN(C(=O)c1cc2ccccc2[nH]1)[C@H]1CCC[C@@H](NCc2cc(C3CC3)no2)C1` [Compound 455], the IC50 under setting [1] was under 100 nM.

As to `CCN(C(=O)c1nc2cc(F)ccc2[nH]1)[C@H]1CCC[C@@H](NCc2ccccc2)C1` [Compound 483], the IC50 under setting [1] is under 100 nM.

`CCN(C(=O)c1nc2ccccc2[nH]1)[C@H]1CCC[C@@H](NCc2cc3ccccc3s2)C1` [Compound 490]: the IC50 under setting [1] is under 100 nM.

Turning to `CCN(C(=O)c1cc2ccccc2[nH]1)[C@H]1CCC[C@@H](NCc2cccc(F)c2)C1` [Compound 122], the IC50 (PC12 cells) is over 2000 nM.

For `CCN(C(=O)c1nc2ccccc2[nH]1)[C@H]1CCC[C@@H](NCc2cccc(OC(F)(F)F)c2)C1` [Compound 472], the IC50 under setting [1] was under 100 nM.

As for `CCN(C(=O)c1cc2ccccc2[nH]1)[C@@H]1C[C@H](NCc2ccccc2)CS(=O)(=O)C1` [Compound 313, N-((3R,5S)-5-(benzylamino)-1,1-dioxidotetrahydro-2H-thiopyran-3-yl)-N-ethyl-1H-indole-2-carboxamide], under setting [1], the IC50 is over 2000 nM.

As for `CCN(C(=O)c1cc2ccccc2[nH]1)[C@H]1CCC[C@@H](NCc2cccc(OC(F)(F)F)c2)C1` [Compound 430], the 50% inhibitory concentration (IC50) under setting [1] is under 100 nM.

For `CCN(C(=O)c1nc2cc(C3CC3)ccc2[nH]1)[C@H]1CCC[C@@H](NCc2ccccc2)C1` [Compound 541], the IC50 under setting [1] is under 100 nM.

As to `CCN(C(=O)c1cc2cc(C(F)(F)F)ccc2[nH]1)[C@H]1CCC[C@@H](NCc2ccccc2)C1` [Compound 544], under setting [1], the 50% inhibitory concentration (IC50) is under 100 nM.

Regarding `CCN(C(=O)c1cc2ccccc2[nH]1)[C@H]1CCC[C@@H](N[C@H]2CCc3cc(F)ccc32)C1` [Compound 124], under setting [1], the IC50 is under 100 nM.

Turning to `CCN(C(=O)c1cc2ccccc2[nH]1)[C@H]1CCC[C@@H](NCc2cccc(O)c2)C1` [Compound 427], the IC50 under setting [1] is under 100 nM.

Turning to `CCN(C(=O)c1cc2ccccc2[nH]1)[C@H]1CCC[C@@H](NCc2cnc(Cl)nc2)C1` [Compound 133], under setting [1], the half-maximal inhibitory concentration (IC50) fell in the range of 100 to 500 nM.

For `CCN(C(=O)c1cc2cc(C#N)ccc2[nH]1)[C@H]1CCC[C@@H](NCc2ccccc2)C1` [Compound 538, N-((1S,3R)-3-(benzylamino)cyclohexyl)-5-cyano-N-ethyl-1H-indole-2-carboxamide], the IC50 under setting [1] was under 100 nM.

For `CCN(C(=O)c1cc2ccccc2[nH]1)[C@H]1CCC[C@@H](NCc2cnc(C)nc2)C1` [Compound 131], the IC50 under setting [1] is 100 to 500 nM.

`O=C(c1cc2ccccc2[nH]1)N(CC(F)(F)F)[C@H]1CCC[C@H](NCc2ccc(F)cc2)C1` [Compound 180]: the IC50 under setting [1] was 500 to 2000 nM.

Regarding `CCN(C(=O)c1nc2ccccc2[nH]1)[C@H]1CCC[C@@H](NCc2ccc(OC(F)(F)F)cc2)C1` [Compound 473], the IC50 under setting [1] is under 100 nM.

On to `CCN(C(=O)c1nc2cc(C#N)ccc2[nH]1)[C@H]1CCC[C@@H](NCc2ccccc2)C1` [Compound 485], for which the IC50 under setting [1] is under 100 nM.

On to `CCN(C(=O)c1cc2ccccc2[nH]1)[C@@H]1CCC[C@@H](N[C@@H]2CCc3ccccc32)C1` [Compound 114], for which the IC50 under setting [1] is over 2000 nM.

For the molecule `CCN(C(=O)c1cc2ccccc2[nH]1)[C@@H]1C[C@@H](NCc2ccccc2)CS(=O)(=O)C1` [Compound 314, N-((3R,5R)-5-(benzylamino)-1,1-dioxidotetrahydro-2H-thiopyran-3-yl)-N-ethyl-1H-indole-2-carboxamide], under setting [1], the IC50 was over 2000 nM.

For the molecule `CCN(C(=O)c1nc2ccccc2[nH]1)[C@@]1(C)CCC[C@@H](NCc2ccccc2)C1` [Compound 555, N-((1S,3R)-3-(benzylamino)-1-methylcyclohexyl)-N-ethyl-1H-benzo[d]imidazole-2-carboxamide], the IC50 under setting [1] was over 2000 nM.

As for `C#CCOc1cccc(CN[C@@H]2CCC[C@H](N(CC)C(=O)c3nc4c(N=[N+]=[N-])cccc4[nH]3)C2)c1` [Compound 560], the half-maximal inhibitory concentration (IC50) under setting [1] was under 100 nM.

Turning to `CCN(C(=O)c1nc2cc(C#N)ccc2[nH]1)[C@H]1CCC[C@@H](NCc2cc(C3CC3)on2)C1` [Compound 537], the IC50 under setting [1] was under 100 nM.

Consider `CCN(C(=O)c1cc2cc(OC(F)(F)F)ccc2[nH]1)[C@H]1CCC[C@@H](NCc2ccccc2)C1` [Compound 542, N-((1S,3R)-3-(benzylamino)cyclohexyl)-N-ethyl-5-(trifluoromethoxy)-1H-indole-2-carboxamide], for which, under setting [1], the half-inhibitory concentration (IC50) was under 100 nM.

For the molecule `CCN(C(=O)c1cc2ccccc2[nH]1)[C@H]1CCC[C@@H](NCc2ccc(O)cc2)C1` [Compound 428], the IC50 under setting [1] was under 100 nM.

Take `CCN(C(=O)c1cc2ccccc2[nH]1)[C@H]1COC[C@@H](NCc2ccccc2)C1` [Compound 300, N-((3R,5S)-5-(benzylamino)tetrahydro-2H-pyran-3-yl)-N-ethyl-1H-indole-2-carboxamide]: the IC50 under setting [1] fell in the range of 100 to 500 nM.

In the case of `CCN(C(=O)c1cc2ccccc2[nH]1)[C@H]1CCC[C@@H](NCC2CCOCC2)C1` [Compound 118], under setting [1], the IC50 fell in the range of 100 to 500 nM.

As to `CCN(C(=O)c1cc2c([nH]1)CCCS2(=O)=O)[C@H]1CCC[C@@H](NCc2ccccc2)C1` [Compound 512, N-((1S,3R)-3-(benzylamino)cyclohexyl)-N-ethyl-1,5,6,7-tetrahydrothiopyrano[3,2-b]pyrrole-2-carboxamide 4,4-dioxide], the IC50 under setting [1] lay within 100 to 500 nM.

Consider `CCN(C(=O)c1cc2ccccc2[nH]1)[C@H]1CCC[C@@H](NCc2cc(C3CC3)on2)C1` [Compound 460], for which the IC50 under setting [1] is under 100 nM.

For the molecule `CCN(C(=O)c1cc2ccccc2[nH]1)[C@H]1CCC[C@@H](NCc2ccnc(OC)c2)C1` [Compound 457], under setting [1], the IC50 was under 100 nM.

In the case of `O=C(c1cc2ccccc2[nH]1)N(CC(F)(F)F)[C@H]1CCC[C@@H](NCc2cccnc2)C1` [Compound 175], the IC50 under setting [1] was under 100 nM.

Regarding `CCN(C(=O)c1cc2ccccc2[nH]1)[C@H]1CCC[C@H](NCC2CCOCC2)C1` [Compound 119], the IC50 under setting [1] was under 100 nM.

As to `CCN(C(=O)c1cc2ccccc2[nH]1)[C@H]1CCC[C@@H](NCc2cnoc2)C1` [Compound 453], the IC50 under setting [1] lay in the range of 100 to 500 nM.

Take `CCN(C(=O)c1cc2ncccc2[nH]1)[C@H]1CCC[C@@H](NC2(c3ccccc3)CC2)C1` [Compound 418, N-ethyl-N-((1S,3R)-3-((1-phenylcyclopropyl)amino)cyclohexyl)-1H-pyrrolo[3,2-b]pyridine-2-carboxamide]: the IC50 under setting [1] was 100 to 500 nM.

`CCN(C(=O)c1cc2ccccc2[nH]1)[C@H]1CCC[C@@H](N[C@@H]2CCc3cc(F)ccc32)C1` [Compound 125]: under setting [1], the IC50 was 100 to 500 nM.

In the case of `CCN(C(=O)c1nc2cc(F)ccc2[nH]1)[C@H]1CCC[C@@H](NCc2ccc(C#N)cc2)C1` [Compound 527], the half-maximal inhibitory concentration (IC50) under setting [1] was under 100 nM.

As for `CCN(C(=O)c1cc2ccncc2[nH]1)[C@H]1CCC[C@@H](NCc2ccccc2)C1` [Compound 403], the IC50 under setting [1] fell in the range of 100 to 500 nM.

Turning to `CCN(C(=O)c1nc2ccccc2[nH]1)[C@H]1CCC[C@@H](NCc2cc3cc(F)ccc3o2)C1` [Compound 478], under setting [1], the IC50 is under 100 nM.

On to `CCN(C(=O)c1cc2ccccc2[nH]1)[C@H]1CCC[C@@H](NCc2ccncn2)C1` [Compound 137], for which the IC50 under setting [1] is 100 to 500 nM.

As to `CCN(C(=O)c1cc2ccccc2[nH]1)[C@H]1CCC[C@@H](NCc2nnc(C)s2)C1` [Compound 454], the 50% inhibitory concentration (IC50) under setting [1] is under 100 nM.

In the case of `C#CCOc1cccc(CN[C@@H]2CCC[C@H](N(CC)C(=O)c3nc4cc(N)ccc4[nH]3)C2)c1` [Compound 564], the IC50 under setting [1] was 100 to 500 nM.
